Results published in patent US20180146698A1, “FORMULA FEED FOR POULTRY” (JXTG Nippon Oil & Energy Corporation, priority 2015, published 2018).

Tested on: chickens
Assay: Chicken egg color enhancement test 2: yolk color fan value, feeds with corn contents of 30% to 50%
Type: in vivo
Details: for color fan value compared with t-capsanthin: corn contents of 30% and 50%
Experimental: The effects of the present invention were confirmed using feeds with corn contents of 30% to 50% in the same manner as in Example 1. Formula feeds were prepared by adding astaxanthin or t-capsanthin to feeds with the compositions listed in Table 5 so as to result in a final concentration of 1 to 16 ppm. In this Example, the feeds were the same except the corn content and the content of brown rice, which is added depending on a decrease in the corn content, and corn-derived corn gluten meal was not mixed therein. FIGS. 8a and 8b show the relationship between the astaxanthin and t-capsanthin concentrations in the feeds with corn contents of 30% and 50% and the yolk color fan values for the obtained eggs. Based on the results of FIGS. 8a and 8b, the concentrations of astaxanthin and t-capsanthin to be added to a feed in order to achieve a desired color fan value of 10 to 15 were calculated for feeds with corn contents of 30% and 50% (Table 6).

[1] = desired CF value 10, 30% Corn feed
[2] = desired CF value 10, 50% Corn feed
[3] = desired CF value 11, 30% Corn feed
[4] = desired CF value 11, 50% Corn feed
[5] = desired CF value 12, 30% Corn feed
[6] = desired CF value 12, 50% Corn feed
[7] = desired CF value 13, 30% Corn feed
[8] = desired CF value 13, 50% Corn feed
[9] = desired CF value 14, 30% Corn feed
[10] = desired CF value 14, 50% Corn feed
[11] = desired CF value 15, 30% Corn feed
[12] = desired CF value 15, 50% Corn feed

## CC1=C(/C=C/C(C)=C/C=C/C(C)=C/C=C/C=C(C)/C=C/C=C(C)/C=C/C2=C(C)C(=O)[C@@H](O)CC2(C)C)C(C)(C)C[C@H](O)C1=O [Astaxanthin, astaxanthin]
Coloring agent 1 to 8 ppm
  color fan value compared with t-capsanthin: greater than those obtained using t-capsanthin
Coloring agent 16 ppm
  color fan value compared with t-capsanthin: no significant difference
[1]
  Astaxanthin/t-Capsanthin ratio: 62%
  Colorant concentration in feed to achieve desired CF value: 1.3 ppm
[2]
  Astaxanthin/t-Capsanthin ratio: 58%
  Colorant concentration in feed to achieve desired CF value: 1.4 ppm
[3]
  Astaxanthin/t-Capsanthin ratio: 61%
  Colorant concentration in feed to achieve desired CF value: 1.7 ppm
[4]
  Astaxanthin/t-Capsanthin ratio: 61%
  Colorant concentration in feed to achieve desired CF value: 1.9 ppm
[5]
  Astaxanthin/t-Capsanthin ratio: 61%
  Colorant concentration in feed to achieve desired CF value: 2.2 ppm
[6]
  Astaxanthin/t-Capsanthin ratio: 63%
  Colorant concentration in feed to achieve desired CF value: 2.5 ppm
[7]
  Astaxanthin/t-Capsanthin ratio: 64%
  Colorant concentration in feed to achieve desired CF value: 3.0 ppm
[8]
  Astaxanthin/t-Capsanthin ratio: 65%
  Colorant concentration in feed to achieve desired CF value: 3.4 ppm
[9]
  Astaxanthin/t-Capsanthin ratio: 63%
  Colorant concentration in feed to achieve desired CF value: 4.0 ppm
[10]
  Astaxanthin/t-Capsanthin ratio: 69%
  Colorant concentration in feed to achieve desired CF value: 4.7 ppm
[11]
  Astaxanthin/t-Capsanthin ratio: 64%
  Colorant concentration in feed to achieve desired CF value: 6.3 ppm
[12]
  Astaxanthin/t-Capsanthin ratio: 82%
  Colorant concentration in feed to achieve desired CF value: 8.0 ppm
